Test results: patent EP4741383A1, “COMPOUND AND USE THEREOF AS ANTI-CANCER DRUG” (Tyligand Bioscience (Shanghai) Limited, priority 2023, dated 2025)

Assays:
Format in all cases: biochemical
[1] = target: T1, VHR (Homo sapiens, UniProt P51452); assay: Tyrosine phosphatase selectivity (pNPP substrate), VHR; conditions: for IC50: VHR, pNPP substrate; for IC50PTP/IC50SHP2 VHR: selectivity ratio VHR over SHP2
T1 construct: made in house; host or cells: E. coli
Protocol: (§1) This experiment evaluated the selectivity of the disclosed compounds against tyrosine phosphatases, including SHP1, HePTP, Laforin, LMWPTP, LYP, PTP1B, PRL2, SSU72, VHR, FAP1, STEP, CDC14A, CD45, MEG2, and PP5, all expressed and purified from E. coli.
(§2) Phosphatase activity was measured using p-nitrophenyl phosphate (pNPP) (Fisher Scientific) as the substrate in 50 mM 3,3-dimethylglutaric acid buffer (pH 7.0, containing 1 mM EDTA), with ionic strength adjusted to 0.15 M with NaCl. […] After 10-60 minutes, the reaction was quenched by adding 20 µL of 5 N NaOH. Wells without enzyme were used as controls for correction. The amount of the product, p-nitrophenol, was determined by measuring the absorbance at 405 nm using a Spectra MAX340 microplate spectrophotometer (Molecular Devices), with a molar extinction coefficient of 18000 M^-1cm^-1.
(§3) Data were analyzed using GraphPad Prism software. Dose-response curves were obtained by fitting data using the nonlinear S-curve regression Dose-response-inhibition equation, and IC50 values were calculated.

[2] = target: T2, LYP (Homo sapiens, UniProt Q9Y2R2); assay: Tyrosine phosphatase selectivity (pNPP substrate), LYP; conditions: for IC50: LYP, pNPP substrate; for IC50PTP/IC50SHP2 LYP: selectivity ratio LYP over SHP2
T2 construct: made in house; host or cells: E. coli
T2 sequence (Q9Y2R2 1-807): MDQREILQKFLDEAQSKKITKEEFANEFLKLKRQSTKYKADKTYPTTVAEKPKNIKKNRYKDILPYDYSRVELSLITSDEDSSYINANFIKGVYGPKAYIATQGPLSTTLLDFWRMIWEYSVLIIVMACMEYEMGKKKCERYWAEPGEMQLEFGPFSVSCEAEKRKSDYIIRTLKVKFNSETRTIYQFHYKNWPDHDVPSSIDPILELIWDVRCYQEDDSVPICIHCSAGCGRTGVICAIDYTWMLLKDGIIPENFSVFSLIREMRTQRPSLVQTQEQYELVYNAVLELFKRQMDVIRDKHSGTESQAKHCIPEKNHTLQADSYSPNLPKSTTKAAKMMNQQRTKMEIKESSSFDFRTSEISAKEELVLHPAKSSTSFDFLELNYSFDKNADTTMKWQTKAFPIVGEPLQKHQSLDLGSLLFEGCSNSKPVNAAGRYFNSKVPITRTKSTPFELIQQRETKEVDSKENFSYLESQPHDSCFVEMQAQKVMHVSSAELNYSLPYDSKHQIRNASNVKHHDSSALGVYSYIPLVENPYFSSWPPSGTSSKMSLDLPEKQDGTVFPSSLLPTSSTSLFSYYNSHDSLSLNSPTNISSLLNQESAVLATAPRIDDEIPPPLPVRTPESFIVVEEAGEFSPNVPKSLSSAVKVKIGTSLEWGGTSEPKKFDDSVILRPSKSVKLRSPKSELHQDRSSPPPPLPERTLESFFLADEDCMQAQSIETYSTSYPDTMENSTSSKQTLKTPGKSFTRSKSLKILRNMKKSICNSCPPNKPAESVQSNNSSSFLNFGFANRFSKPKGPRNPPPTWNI
Protocol: as §1, §2, §3

[3] = target: T3, CD45 (Homo sapiens, UniProt P08575); assay: Tyrosine phosphatase selectivity (pNPP substrate), CD45; conditions: for IC50: CD45, pNPP substrate; for IC50PTP/IC50SHP2 CD45: selectivity ratio CD45 over SHP2
T3 construct: made in house; host or cells: E. coli
T3 sequence (P08575 26-1306): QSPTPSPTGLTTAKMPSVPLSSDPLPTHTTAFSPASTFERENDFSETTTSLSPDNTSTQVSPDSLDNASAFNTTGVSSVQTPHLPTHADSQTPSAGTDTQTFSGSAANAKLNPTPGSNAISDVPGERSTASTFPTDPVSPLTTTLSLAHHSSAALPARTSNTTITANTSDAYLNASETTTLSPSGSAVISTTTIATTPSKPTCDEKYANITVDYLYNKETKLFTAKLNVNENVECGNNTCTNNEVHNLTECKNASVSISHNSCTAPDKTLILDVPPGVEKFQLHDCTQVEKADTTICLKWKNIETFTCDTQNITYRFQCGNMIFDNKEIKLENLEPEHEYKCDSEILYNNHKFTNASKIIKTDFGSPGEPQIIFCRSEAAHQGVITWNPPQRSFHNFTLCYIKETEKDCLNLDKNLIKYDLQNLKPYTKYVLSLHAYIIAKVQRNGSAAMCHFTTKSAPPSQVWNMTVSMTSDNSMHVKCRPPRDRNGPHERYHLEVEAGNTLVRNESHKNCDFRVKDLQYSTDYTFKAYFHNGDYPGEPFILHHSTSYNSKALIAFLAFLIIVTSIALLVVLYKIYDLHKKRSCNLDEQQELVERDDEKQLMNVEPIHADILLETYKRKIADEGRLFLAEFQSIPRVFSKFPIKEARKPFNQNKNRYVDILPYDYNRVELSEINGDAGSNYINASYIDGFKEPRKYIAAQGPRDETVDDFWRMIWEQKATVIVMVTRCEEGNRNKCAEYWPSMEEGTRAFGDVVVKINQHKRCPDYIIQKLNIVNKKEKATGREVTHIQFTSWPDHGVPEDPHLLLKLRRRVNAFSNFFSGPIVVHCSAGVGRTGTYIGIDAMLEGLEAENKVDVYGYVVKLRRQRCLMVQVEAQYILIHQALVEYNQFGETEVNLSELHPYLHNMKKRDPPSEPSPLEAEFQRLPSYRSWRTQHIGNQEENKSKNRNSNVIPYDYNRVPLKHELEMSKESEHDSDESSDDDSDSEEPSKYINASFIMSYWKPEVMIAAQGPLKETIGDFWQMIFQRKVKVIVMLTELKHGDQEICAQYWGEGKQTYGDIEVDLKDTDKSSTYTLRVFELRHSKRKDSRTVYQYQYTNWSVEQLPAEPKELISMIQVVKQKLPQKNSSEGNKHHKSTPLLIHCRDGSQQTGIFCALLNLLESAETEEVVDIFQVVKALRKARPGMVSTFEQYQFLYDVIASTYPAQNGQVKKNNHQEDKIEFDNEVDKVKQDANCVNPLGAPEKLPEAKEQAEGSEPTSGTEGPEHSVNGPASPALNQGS
Protocol: as §1, §2, §3

T1 sequence (P51452 whole entry, species assumed): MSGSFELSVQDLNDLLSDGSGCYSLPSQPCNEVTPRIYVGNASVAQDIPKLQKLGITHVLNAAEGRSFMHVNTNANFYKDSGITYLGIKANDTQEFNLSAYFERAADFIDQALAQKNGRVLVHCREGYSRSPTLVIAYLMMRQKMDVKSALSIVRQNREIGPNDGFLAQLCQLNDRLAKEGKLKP

| Compound | IC50 [1] | IC50PTP/IC50SHP2 VHR [1] | IC50 [2] | IC50PTP/IC50SHP2 LYP [2] | IC50 [3] | IC50PTP/IC50SHP2 CD45 [3] |
| --- | --- | --- | --- | --- | --- | --- |
| O=C(Nc1ccc(-c2ccsc2)cc1)C(=O)Nc1ccc(-c2cc3cc(F)c(-c4nnn[nH]4)cc3n2C2CCC2)cc1 [Example 4] | 4500 nM | 155.2 | 500 nM | 17.2 | > 50000 nM | 1724.1 |
| Cn1c(-c2cccc(NC(=O)C(=O)Nc3ccc(-c4ccsc4)cc3)c2)c(I)c2cc(C(=O)O)c(O)cc21 [Example 11a-1, reference compound] | 3200 nM | 29.6 | 1050 nM | 9.7 |  |  |
| O=C(Nc1ccc(-c2cc3cc(F)c(-c4nnn[nH]4)cc3n2C2CCC2)cc1)C(=O)Nc1ccc(N2CCOCC2)cc1 [Example 47] | 1150 nM | 18.2 | 189 nM | 3.0 | 1060 nM | 16.8 |
| O=C(Nc1ccc(-c2cc3cc(F)c(-c4nnn[nH]4)cc3n2C2CCC2)cc1)C(=O)Nc1ccc(N2CCC3(CCOC3)CC2)cc1 [Example 67] | 4450 nM | 130 | 76 nM | 2.2 | 2620 nM | 77.0 |
| CC1(n2c(-c3ccc(NC(=O)C(=O)Nc4ccc(N5CCC6(CCOC6)CC5)cc4)cc3)cc3cc(F)c(-c4nnn[nH]4)cc32)CCC1 [Example 68] | > 25000 nM | 520.8 | 1540 nM | 32.1 | 3480 nM | 72.5 |
| O=C(Nc1ccc(-c2cc3cc(F)c(-c4nnn[nH]4)cc3n2C2CCC2)cc1)C(=O)Nc1ccc(N2CC3COCC3C2)cc1 (stereo not shown) [Example 114] | 2140 nM | 29.7 | 100 nM | 1.3 | 1810 nM | 25.1 |
| Cn1cc(-c2ccc(NC(=O)C(=O)Nc3ccc(-c4cc5cc(F)c(-c6noc(=O)[nH]6)cc5n4C4CCC4)cc3)cc2)cn1 [Example 123] | 2440 nM | 17.3 | 1070 nM | 7.6 | 4270 nM | 30.3 |
| Cn1cc(-c2ccc(NC(=O)C(=O)Nc3ccc(-c4cc5cc(F)c(-c6nnc(C(F)(F)F)[nH]6)cc5n4C4CCC4)cc3)cc2)cn1 [Example 124] | > 100000 nM | 139.7 | > 100000 nM | 139.7 | > 100000 nM | 139.7 |
| O=C(Nc1ccc(-c2oc3cc(F)c(-c4nnn[nH]4)cc3c2C2CCC2)cc1)C(=O)Nc1ccc(N2CCC3(CCOC3)CC2)cc1 [Example 125] | 88200 nM | 1729.4 | 2500 nM | 49.0 | 16100 nM | 315.7 |
| O=C(Nc1ccc(-c2ccsc2)cc1)C(=O)Nc1ccc(-c2cc3ccc(-c4nnn[nH]4)nc3n2C2CCC2)cc1 [Example 129] | < 3000 nM | 50.8 | 1200 nM | 20.3 | 41500 nM | 703.4 |
| O=C(Nc1ccc(-c2ccsc2)cc1)C(=O)Nc1ccc(-c2oc3cc(F)c(-c4nnn[nH]4)cc3c2C2CCC2)cc1 [Example 130] | < 3000 nM | 120 | 1200 nM | 48 | > 50000 nM | 2000 |
| O=C(Nc1ccc(-c2ccsc2)cc1)C(=O)Nc1ccc(-c2cc3cnc(-c4nnn[nH]4)nc3n2C2CCC2)cc1 [Example 131] | 9900 nM | 380.8 | 500 nM | 19.2 | 25200 nM | 969.2 |
| O=C(Nc1ccc(-c2ccsc2)cc1)C(=O)Nc1ccc(-c2cc3cc(F)c(-c4nnn[nH]4)nc3n2C2CCC2)cc1 [Example 132] | 10300 nM | 381.5 | 500 nM | 18.5 | 23700 nM | 877.8 |
